Patent US10023562B2, “Heteroaryl substituted pyridyl compounds useful as kinase modulators” (BRISTOL-MYERS SQUIBB COMPANY, priority 2012, dated 2018)
Read-outs that look alike come from different tables or passages of the source.

Tested on: TLR2 induced IL-6 in peripheral blood mononuclear cells (PBMCs)
Test: PBMC TLR2 Induced IL-6 Assay
Type: cell-based
Conditions: 10 μg/ml lipoteichoic acid for 5 hours, IL-6 by ELISA; for IC50: values without asterisk, read-out: Cell IC50
Protocol: PBMC TLR2 Induced IL-6 Assay Peripheral blood mononuclear cells (PBMCs) were isolated from human blood containing the anti-coagulant EDTA (2.5 mM) by centrifugation over a FICOLL® gradient. […] At the end of the culture, plates were centrifuged at 1800 rpm for 10 minutes to pellet the cells. Supernatants were harvested and analyzed for IL-6 levels by ELISA (BD Biosciences, San Jose, Calif.).

[1] = Homo sapiens, PBMC, 5 h, values marked * are EC50, read-out: Cell EC50 (values marked *)

| Compound | EC50 [1] | IC50 (Homo sapiens, PBMC, 5 h) | also measured |
| --- | --- | --- | --- |
| CC(C)(O)[C@H](F)CNC(=O)c1cnc(Nc2ncc(C#N)cc2F)cc1NC12CCC(O)(CC1)C2 [Example 133] | 85 nM | – | – |
| CC(C)Nc1cc(Nc2ncc(C#N)cn2)ncc1C(=O)NC[C@@H](F)C(C)(C)O [Example 22, 6-((5-cyano-2-pyrimidinyl)amino)-N-((2R)-2-fluoro-3-hydroxy-3-methylbutyl)-4-(isopropylamino)nicotinamide] | – | 342 nM | – |
| CNC(=O)[C@H]1CC[C@H](NC(=O)c2cnc(Nc3ncc(C#N)cc3F)cc2NC(C)C)CC1 [Example 18, 6-((5-cyano-3-fluoropyridin-2-yl)amino)-4-(isopropylamino)-N-((1r,4r)-4-(methylcarbamoyl)cyclohexyl)nicotinamide] | – | 137 nM | – |
| COc1cccc(Nc2cc(Nc3ncc(C#N)cc3F)ncc2C(=O)NC[C@@H](F)C(C)(C)O)c1 [Example 130] | 89 nM | – | – |
| CC(C)(O)[C@H](F)CNC(=O)c1cnc(Nc2ncncc2Cl)cc1NC1CC1 [Example 105] | 336 nM | – | – |
| CC(C)(O)[C@H](F)CNC(=O)c1cnc(Nc2ncc(C#N)cc2F)cc1NC1CCCOC1 (stereo partly shown) [Example 97] | – | 418 nM | – |
| CC(C)(O)[C@H](F)CNC(=O)c1cnc(Nc2ncc(C#N)cc2Cl)cc1NC1CCOCC1F (stereo partly shown) [Example 79] | 494 nM | – | – |
| CC(=O)N[C@H]1CC[C@H](NC(=O)c2cnc(Nc3ncc(C#N)cc3Cl)cc2NC2CCOCC2)CC1 [Example 77] | 216 nM | – | – |
| CC(C)Nc1cc(Nc2ncc(C#N)cc2F)ncc1C(=O)N[C@H]1CC[C@H](C(=O)NC2CC2)CC1 [Example 118] | 172 nM | – | – |
| CC(C)Nc1cc(Nc2ccncn2)ncc1C(=O)NC[C@@H](F)C(C)(C)O [Example 20, N-((2R)-2-fluoro-3-hydroxy-3-methylbutyl)-4-(isopropylamino)-6-(4-pyrimidinylamino)nicotinamide] | – | 647 nM | – |
| CC(C)Nc1cc(Nc2ncc(C#N)cc2F)ncc1C(=O)NC1CCC(O)(c2ccnn2C)CC1 (stereo not shown) [Example 166] | 202 nM | – | – |
| CC(C)Nc1cc(Nc2ncc(C#N)cc2F)ncc1C(=O)N[C@H]1CC[C@H](S(C)(=O)=O)CC1 [Example 33, 6-((5-cyano-3-fluoropyridin-2-yl)amino)-4-(isopropylamino)-N-((1R,4R)-4-(methylsulfonyl)cyclohexyl)nicotinamide] | 149 nM | – | – |
| CC(=O)N[C@H]1CC[C@H](NC(=O)c2cnc(Nc3ncc(C#N)cc3F)cc2NC(C)C)CC1 [Example 19, N-(trans-4-acetamidocyclohexyl)-6-((5-cyano-3-fluoro-2-pyridinyl)amino)-4-(isopropylamino)nicotinamide] | – | 378 nM | – |
| CC(C)(O)[C@H](F)CNC(=O)c1cnc(Nc2ncc(C#N)cc2F)cc1NC1CC1 [Example 47] | – | 69 nM | – |
| Cc1nc(Nc2cc(NC(C)C)c(C(=O)NC[C@@H](F)C(C)(C)O)cn2)ccc1C#N [Example 63] | 92 nM | – | – |
| C[C@@H](CO)Nc1cc(Nc2ncc(C#N)cc2Cl)ncc1C(=O)NC[C@@H](F)C(C)(C)O [Example 50] | – | 85 nM | – |
| CC(C)(O)[C@H](F)CNC(=O)c1cnc(Nc2ncc(C#N)cc2Cl)cc1Nc1ccc(-n2cccn2)cc1 [Example 168] | 122 nM | – | – |
| CC(C)Nc1cc(Nc2ncc(C#N)cc2Cl)ncc1C(=O)NC[C@@H](F)C(C)(C)O [Example 12, 6-((3-chloro-5-cyano-2-pyridinyl)amino)-N-((2R)-2-fluoro-3-hydroxy-3-methylbutyl)-4-(isopropylamino)nicotinamide] | – | 50 nM | – |
| CC(C)Nc1cc(Nc2ncncc2N)ncc1C(=O)NC[C@@H](F)C(C)(C)O [Example 132] | 862 nM | – | – |

| Compound | EC50 [1] | IC50 (Homo sapiens, PBMC, 5 h) | also measured |
| --- | --- | --- | --- |
| CCNc1cc(Nc2ncc(C#N)cn2)ncc1C(=O)NC[C@@H](F)C(C)(C)O [Example 58] | – | 191 nM | – |
| CC(C)Nc1cc(Nc2ncc(C#N)cc2F)ncc1C(=O)NCCc1ccc(S(N)(=O)=O)cc1 [Example 121] | 49 nM | – | – |
| CNC(=O)[C@H]1CC[C@H](NC(=O)c2cnc(Nc3ccc(C#N)cn3)cc2NC(C)C)CC1 [Example 5, 6-((5-cyano-2-pyridinyl)amino)-4-(isopropylamino)-N-(trans-4-(methylcarbamoyl)cyclohexyl)nicotinamide] | – | 588 nM | – |
| CC(C)(O)[C@H](F)CNC(=O)c1cnc(Nc2ncc(C#N)cc2Cl)cc1NC1CC1 [Example 14, 6-((3-chloro-5-cyano-2-pyridinyl)amino)-4-(cyclopropylamino)-N-((2R)-2-fluoro-3-hydroxy-3-methylbutyl)nicotinamide] | – | 43 nM | – |
| CC(C)(O)[C@H](F)CNC(=O)c1cnc(Nc2ncc(F)cc2F)cc1NC1CC1 [Example 89] | 491 nM | – | – |
| CC(C)Nc1cc(Nc2ncc(C#N)c(NC(C)C)n2)ncc1C(=O)NC[C@@H](F)C(C)(C)O [Example 40] | 161 nM | – | – |
| CNC(=O)[C@H]1CC[C@H](NC(=O)c2cnc(Nc3ncc(C#N)cc3F)cc2NC2CCOCC2)CC1 [Example 61] | – | 184 nM | – |
| C[C@@H](CF)Nc1cc(Nc2ncc(C#N)cc2Cl)ncc1C(=O)NC[C@@H](F)C(C)(C)O [Example 39, 6-((3-chloro-5-cyanopyridin-2-yl)amino)-N—((R)-2-fluoro-3-hydroxy-3-methylbutyl)-4-(((S)-1-fluoropropan-2-yl)amino)nicotinamide] | 100 nM | – | – |
| CC(=O)N[C@H]1CC[C@H](NC(=O)c2cnc(Nc3ncc(C#N)cc3F)cc2NC2CC2)CC1 [Example 83] | 771 nM | – | – |
| CC(=O)N[C@H](C)CCNC(=O)c1cnc(Nc2ncc(C#N)cc2Cl)cc1NC(C)C [Example 28, (R)—N-(3-acetamidobutyl)-6-((3-chloro-5-cyanopyridin-2-yl)amino)-4-(isopropylamino)nicotinamide] | – | 270 nM | – |
| CC(C)(O)[C@H](F)CNC(=O)c1cnc(Nc2ncc(C#N)cc2F)cc1NC1COC1 [Example 164] | – | – | EC50 (human PBMC, values marked * are EC50, read-out: Cell EC50 (values marked *)): 174 nM |
| CC(C)Nc1cc(Nc2ccc(=O)[nH]n2)ncc1C(=O)NC[C@@H](F)C(C)(C)O [Example 45] | – | 712 nM | – |
| CC(C)Nc1cc(Nc2ccc(C#N)c(N3CCC(O)C3)n2)ncc1C(=O)NC[C@@H](F)C(C)(C)O (stereo in doubt) [Example 27, 6-((5-cyano-6-((3S)-3-hydroxy-1-pyrrolidinyl)-2-pyridinyl)amino)-N-((2R)-2-fluoro-3-hydroxy-3-methylbutyl)-4-(isopropylamino)nicotinamide] | – | 133 nM | – |
| CC(C)Nc1cc(Nc2ccnc(NC3CCCOC3)n2)ncc1C(=O)NC[C@@H](F)C(C)(C)O (stereo partly drawn) [Example 25, N-((2R)-2-fluoro-3-hydroxy-3-methylbutyl)-4-(isopropylamino)-6-((2-(tetrahydro-2H-pyran-3-ylamino)-4-pyrimidinyl)amino)nicotinamide] | – | 372 nM | – |
| CC(C)(O)[C@H](F)CNC(=O)c1cnc(Nc2ncc(C#N)cn2)cc1N[C@H]1CCC[C@H]1F [Example 107] | 757 nM | – | – |
| CC(C)Nc1cc(Nc2ccc(C#N)cn2)ncc1C(=O)N[C@H]1CC[C@H](C(=O)N[C@H]2C[C@H]2F)CC1 [Example 7, 6-((5-cyano-2-pyridinyl)amino)-N-(trans-4-(((1S,2R)-2-fluorocyclopropyl)carbamoyl)cyclohexyl)-4-(isopropylamino)nicotinamide] | – | 800 nM | – |
| CC(C)(O)[C@H](F)CNC(=O)c1cnc(Nc2ncc(C#N)cc2Cl)cc1Nc1ccc2ncsc2c1 [Example 153] | 439 nM | – | – |
| CCNc1cc(Nc2ccc(C#N)cn2)ncc1C(=O)NC[C@@H](F)C(C)(C)O [Example 4, 6-((5-cyano-2-pyridinyl)amino)-4-(ethylamino)-N-((2R)-2-fluoro-3-hydroxy-3-methylbutyl)nicotinamide] | – | 454 nM | – |
